Where a name gives a salt, the structure may show the parent alone.
Key:
[1] = Hygroscopicity by Dynamic Vapor Sorption (DVS); type: physicochemical; conditions: 25° C.
Procedure: (§1) The hygroscopicity of the products of Reference Example 1 and Example 3 were tested using Dynamic Vapor Sorption (DVS). Surface Measurement Systems Ltd. Dynamic Vapour Sorption Advantage Equipment was used employing a 10% RH change at 25° C. starting at 40% RH and looping from 0% RH to 90% RH and back to 0% RH twice. […] Two full cycles from 0% RH to 90% RH were carried out. The percent mass increase with respect to the sample mass of the first exposure to 0% RH (dry weight) was calculated and is presented in Table 7. […] Also, a decrease in mass is noted at 80% RH consistent with a solid-state change, occurs at these conditions.

[2] = Solid-state physical stability: PXRD after the DVS run / exposure to high RH; type: physicochemical; conditions: for physical stability / structural change on water sorption (in words): DVS 0-90% RH, PXRD after the run
Procedure: as §1

Cc1ncnc2c1ccn2[C@@H]1C[C@H](Oc2cc(C(F)F)c(F)c3c2CNCC3)[C@@H](O)[C@H]1O [di HCl, (1S,2S,3S,5R)-3-((6-(difluoromethyl)-5-fluoro-1,2,3,4-tetrahydroisoquinolin-8-yl)oxy)-5-(4-methyl-7H-pyrrolo[2,3-d]pyrimidin-7-yl)cyclopentane-1,2-diol (di) hydrochloride]
% Mass-Ref Dry mass ([1]; 0% RH, relative to mass at first exposure to 0% RH): 0.0%
hygroscopicity (in words) ([1]; 0-90% RH): very hygroscopic
% Mass-Ref Dry mass ([1]; 10% RH, hydrochloride): 2.9%
% Mass-Ref Dry mass ([1]; 20% RH, hydrochloride): 4.0%
% Mass-Ref Dry mass ([1]; 30% RH, hydrochloride): 4.9%
% Mass-Ref Dry mass ([1]; 40% RH, hydrochloride): 6.0%
% Mass-Ref Dry mass ([1]; 50% RH, hydrochloride): 7.6%
% Mass-Ref Dry mass ([1]; 60% RH, hydrochloride): 10.4%
% Mass-Ref Dry mass ([1]; 70% RH, hydrochloride): 14.7%
% Mass-Ref Dry mass ([1]; 70% RH, listed as diHCl salt, hydrochloride): 14.7%
% Mass-Ref Dry mass ([1]; 80% RH, hydrochloride): 12.0%
% Mass-Ref Dry mass ([1]; 90% RH, hydrochloride): 12.0%
physical stability / structural change on water sorption (in words) ([2]; listed as di-HCL salt, hydrochloride): not physically stable
relative humidity at which the amorphous salt crystallizes ([2]; PXRD after DVS run, 25° C.): ≥ 80 % RH

Cc1ncnc2c1ccn2[C@@H]1C[C@H](Oc2cc(C(F)F)c(F)c3c2CNCC3)[C@@H](O)[C@H]1O [Phosphate, (1S,2S,3S,5R)-3-((6-(difluoromethyl)-5-fluoro-1,2,3,4-tetrahydroisoquinolin-8-yl)oxy)-5-(4-methyl-7H-pyrrolo[2,3-d]pyrimidin-7-yl)cyclopentane-1,2-diol monophosphate hydrate]
% Mass-Ref Dry mass ([1]; 10% RH, monophosphate hydrate): 3.4%
% Mass-Ref Dry mass ([1]; 20% RH, monophosphate hydrate): 3.7%
% Mass-Ref Dry mass ([1]; 30% RH, monophosphate hydrate): 3.9%
% Mass-Ref Dry mass ([1]; 40% RH, monophosphate hydrate): 4.1%
% Mass-Ref Dry mass ([1]; 50% RH, monophosphate hydrate): 4.3%
% Mass-Ref Dry mass ([1]; 60% RH): 4.5%
% Mass-Ref Dry mass ([1]; 70% RH, listed as Example 3 phosphate salt, monophosphate hydrate): 4.57%
% Mass-Ref Dry mass ([1]; 70% RH, monophosphate hydrate): 4.6%
% Mass-Ref Dry mass ([1]; 80% RH, monophosphate hydrate): 4.7%
% Mass-Ref Dry mass ([1]; 90% RH, monophosphate hydrate): 4.8%
physical stability / structural change on water sorption (in words) ([2]; listed as Example 3 phosphate salt, monophosphate hydrate): no structural changes caused by the water sorption

Source: patent US20210387992A1, “POLYMORPH FORM OF A MONOPHOSPHATE HYDRATE SALT OF A KNOWN TETRAHYDROISOQUINOLINE DERIVATIVE” (Pfizer Inc., priority 2019, published 2021)
